13 compounds from patent US20220296595A1, “CDK INHIBITORS” (QILU REGOR THERAPEUTICS INC., priority 2019, published 2022) can be followed below.

Each structure is given as a SMILES string. Read-outs that look alike come from different tables or passages of the source.

The target in one assay is T1, CDK6/CyclinD3 (Homo sapiens, UniProt Q00534).
T1 construct: purchased Carna 04-107
Kind of assay: Assay for inhibition of CDK6/CyclinD3 (Caliper microfluidic kinase assay). In kind it is biochemical. In short, it runs like this: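 Caliper mobility-shift readout of FAM-labelled peptide (FL-34, 1 μM) phosphorylation by 2 nM CDK6/CyclinD3 at 300 μM ATP in HEPES pH 7.5 buffer with MgCl2, DTT; 3 h at room temperature, EDTA stop. IC50 from 4-parameter sigmoidal fit.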

Another assay concerns the target T2, CDK4/CyclinD1 (Homo sapiens, UniProt P11802).
T2 construct: purchased Thermofisher PR8064A
Put plainly: Assay for inhibition of CDK4/CyclinD1 (Caliper microfluidic kinase assay). Format: biochemical. In short, it runs like this:
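Caliper microfluidic mobility-shift assay tracking phosphorylation of 1 μM FL-34 peptide by 1 nM CDK4/CyclinD1 with 200 μM ATP in HEPES pH 7.5 buffer with 10 mM MgCl2. Reaction ran 3 h at room temperature, was stopped with EDTA, and IC50 came from a 4-parameter sigmoidal fit.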

Another assay relates to T47D breast cancer cells. Kind of assay: Anti-proliferation assay in T47D cell (Cyquant, day 6). In kind it is cell-based, human. The following applies: Homo sapiens, T47D, anti-proliferation, T47D cells; read-out: T47D IC50. In short, it runs like this: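 Cells were grown in RPMI 1640 with 10% FBS at 37 °C and dosed the day after plating at ten concentrations, 10 μM to 0.51 nM in 3-fold steps. CyQuant fluorescence (ex 485/em 535 nm) was read on day 6. IC50 was fitted from baseline-subtracted viability curves, with the baseline read after overnight culture.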

Assay [1] concerns phosphorylation of Retinoblastoma Protein (pRb Ser807/811 or Ser780) in T47D cells. Kind of assay: Inhibition of phosphorylation of retinoblastoma protein (pRb) in T47D cell (ELISA). In kind it is cell-based, human. The note with it: Homo sapiens, T47D, read-out: Phospho T47D Ser807 IC50, pRb Ser807 phosphorylation, T47D cells. In short, it runs like this: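 T47D cells in RPMI 1640 + 10% FBS, adhered overnight, then treated 24 h with 3-fold compound titrations (top concentration […]). Lysates assayed by sandwich ELISA for pRb Ser807/811 or Ser780 with HRP/TMB detection. IC50 from 4-parameter sigmoidal fit.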
Background: ELISA stands for enzyme-linked immunosorbent assay.

The next assay has as its target T3, CDK2/CyclinE1 (Homo sapiens, UniProt P24941).
T3 construct: purchased SignalChem C29-18G
Kind of assay: Assay for inhibition of CDK2/CyclinE1 (Caliper microfluidic kinase assay). Format: biochemical. The following applies: read-out: CDK2 IC50. In short, it runs like this: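 Caliper microfluidic mobility-shift assay: 5 nM CDK2/CyclinE1, 100 μM ATP, 5 μM FL-18 peptide (5-FAM-QSPKKG-NH2) in pH 7.5 HEPES buffer with MgCl2, DTT, BSA, Triton X-100. Incubated 3 hours at room temperature, EDTA-stopped; IC50 from 4-parameter sigmoidal fit.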

T2 sequence (P11802 whole entry): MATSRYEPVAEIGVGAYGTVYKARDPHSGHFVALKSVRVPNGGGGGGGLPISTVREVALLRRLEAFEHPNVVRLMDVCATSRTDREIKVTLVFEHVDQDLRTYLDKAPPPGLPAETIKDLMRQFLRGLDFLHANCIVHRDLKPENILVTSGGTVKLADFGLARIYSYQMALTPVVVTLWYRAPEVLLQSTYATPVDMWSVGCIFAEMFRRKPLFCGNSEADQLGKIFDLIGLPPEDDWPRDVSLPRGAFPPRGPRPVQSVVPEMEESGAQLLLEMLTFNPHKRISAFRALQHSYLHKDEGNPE
T2 sequence (P24385 whole entry partner): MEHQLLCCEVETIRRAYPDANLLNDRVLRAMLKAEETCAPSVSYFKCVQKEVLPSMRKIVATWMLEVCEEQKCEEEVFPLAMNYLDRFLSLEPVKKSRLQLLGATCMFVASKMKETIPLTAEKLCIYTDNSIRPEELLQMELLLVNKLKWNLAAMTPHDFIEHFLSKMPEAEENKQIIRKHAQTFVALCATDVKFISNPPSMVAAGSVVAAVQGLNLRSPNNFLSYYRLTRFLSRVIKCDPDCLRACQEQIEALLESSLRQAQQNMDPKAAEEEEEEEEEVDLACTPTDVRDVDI
T1 sequence (Q00534 whole entry): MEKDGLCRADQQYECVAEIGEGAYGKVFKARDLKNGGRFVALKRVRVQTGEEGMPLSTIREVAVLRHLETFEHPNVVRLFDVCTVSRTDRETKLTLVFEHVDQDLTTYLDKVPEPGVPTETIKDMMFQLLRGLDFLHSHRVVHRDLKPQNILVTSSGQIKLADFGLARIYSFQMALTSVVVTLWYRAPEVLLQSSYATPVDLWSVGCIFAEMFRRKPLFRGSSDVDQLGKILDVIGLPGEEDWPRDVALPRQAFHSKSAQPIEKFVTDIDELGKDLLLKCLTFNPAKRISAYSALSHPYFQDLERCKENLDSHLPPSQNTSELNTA
T1 sequence (P30281 whole entry partner): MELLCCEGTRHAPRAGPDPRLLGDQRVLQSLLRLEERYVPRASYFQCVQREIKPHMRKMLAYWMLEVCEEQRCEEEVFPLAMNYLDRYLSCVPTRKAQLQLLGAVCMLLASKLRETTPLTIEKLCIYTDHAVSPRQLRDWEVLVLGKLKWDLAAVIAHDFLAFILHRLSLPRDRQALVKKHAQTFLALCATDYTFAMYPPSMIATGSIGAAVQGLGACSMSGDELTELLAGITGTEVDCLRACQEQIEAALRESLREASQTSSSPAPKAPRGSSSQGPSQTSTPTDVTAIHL

One may read the IC50 as the concentration that inhibits the measured activity by half. As for `CCN1CCC(COc2cc(Nc3ncc(F)c(-c4ccn5ncc(C(C)C)c5c4)n3)ccn2)CC1` [compound 45], the IC50 on CDK6/CyclinD3 (CDK6/CyclinD3, 300 μM ATP) was 10 to 100 nM; at CDK4/CyclinD1 (CDK4/CyclinD1, 200 μM ATP), < 10 nM; with T47D breast cancer cells, 100 to 500 nM; in assay [1], 500 to 1000 nM; on CDK2/CyclinE1 (CDK2/CyclinE1, 100 μM ATP), < 10 nM.
For the compound `CC(C)c1cnn2ccc(-c3nc(Nc4ccc(N5CCN(C)CCC5=O)cn4)ncc3F)cc12` [compound 46], the IC50 on CDK6/CyclinD3 (CDK6/CyclinD3, 300 μM ATP) was 10 to 100 nM; at CDK4/CyclinD1 (CDK4/CyclinD1, 200 μM ATP), < 10 nM; with T47D breast cancer cells it was < 100 nM; in assay [1], < 100 nM; on CDK2/CyclinE1 (CDK2/CyclinE1, 100 μM ATP) it was 10 to 100 nM.
Consider `CCN1CCC(=O)N(c2ccc(Nc3ncc(F)c(-c4ccn5ncc(C(C)C)c5c4)n3)nc2)CC1` [compound 47], for which the IC50 is 10 to 100 nM against CDK6/CyclinD3 (CDK6/CyclinD3, 300 μM ATP); < 10 nM against CDK4/CyclinD1 (CDK4/CyclinD1, 200 μM ATP); < 100 nM in the assay with T47D breast cancer cells; < 100 nM in assay [1]; 10 to 100 nM at CDK2/CyclinE1 (CDK2/CyclinE1, 100 μM ATP).
For `CCN1CCN(c2ccc(Nc3ncc(F)c(-c4ccn5ncc(C(C)C)c5c4)n3)nc2)C(=O)C1` [compound 48], the IC50 on CDK6/CyclinD3 (CDK6/CyclinD3, 300 μM ATP) was 10 to 100 nM; against CDK4/CyclinD1 (CDK4/CyclinD1, 200 μM ATP), < 10 nM; in the assay with T47D breast cancer cells, < 100 nM; in assay [1], < 100 nM; on CDK2/CyclinE1 (CDK2/CyclinE1, 100 μM ATP) it was 10 to 100 nM.
As for `CC(C)c1cnn2ccc(-c3nc(Nc4ccc(N5CCN(S(C)(=O)=O)CC5=O)cn4)ncc3F)cc12` [compound 51], the IC50 on CDK6/CyclinD3 (CDK6/CyclinD3, 300 μM ATP) was 10 to 100 nM; at CDK4/CyclinD1 (CDK4/CyclinD1, 200 μM ATP), < 10 nM; with T47D breast cancer cells, < 100 nM; in assay [1], < 100 nM; on CDK2/CyclinE1 (CDK2/CyclinE1, 100 μM ATP), 10 to 100 nM.
As for `CC(C)c1cnn2ccc(-c3nc(Nc4ccc(N5CCN(CC(F)(F)F)CC5=O)cn4)ncc3F)cc12` [compound 53], the IC50 on CDK6/CyclinD3 (CDK6/CyclinD3, 300 μM ATP) was 10 to 100 nM; at CDK4/CyclinD1 (CDK4/CyclinD1, 200 μM ATP), < 10 nM; in the assay with T47D breast cancer cells, 100 to 500 nM; in assay [1], < 100 nM; on CDK2/CyclinE1 (CDK2/CyclinE1, 100 μM ATP) it was 10 to 100 nM.
Take `CC(C)n1cnc2c(OC(F)F)nc(-c3ccnc(Nc4ccc(N5CCOCC5=O)cn4)n3)cc21` [compound 63]: the IC50 against CDK6/CyclinD3 (CDK6/CyclinD3) is 10 to 100 nM; against CDK4/CyclinD1 (CDK4/CyclinD1) it was < 10 nM; in the assay with T47D breast cancer cells, 100 to 500 nM; in assay [1], < 100 nM; on CDK2/CyclinE1 (CDK2/CyclinE1), 100 to 1000 nM.
The corresponding values for `COc1nc(-c2ccnc(Nc3ccc(CN4CCC(C#N)CC4)cn3)n2)cc2c1ncn2C(C)C` [compound 68] are 10 to 100 nM, < 10 nM, 100 to 500 nM, < 100 nM and > 1000 nM.
On to `COc1nc(-c2nc(Nc3ccc(N4CCC(N(C)C)CC4)cn3)ncc2F)cc2c1ncn2C(C)C` [compound 70], for which the IC50 is 10 to 100 nM against CDK6/CyclinD3 (CDK6/CyclinD3); < 10 nM against CDK4/CyclinD1 (CDK4/CyclinD1); 100 to 500 nM in the assay with T47D breast cancer cells; < 100 nM in assay [1]; > 1000 nM at CDK2/CyclinE1 (CDK2/CyclinE1).
The corresponding values for `COc1nc(-c2nc(Nc3ccc(N4CCOCCC4=O)cn3)ncc2F)cc2c1nc(C)n2C(C)C` [compound 73] are 10 to 100 nM, < 10 nM, 500 to 1000 nM, < 100 nM and > 1000 nM.
The corresponding values for `COc1nc(-c2nc(Nc3ccc(N4CCCOCC4=O)cn3)ncc2F)cc2c1nc(C)n2C(C)C` [compound 74] are 10 to 100 nM, < 10 nM, 100 to 500 nM, 100 to 500 nM and > 1000 nM.
The corresponding values for `COc1nc(-c2ccnc(Nc3ccc(N4CCOCC4=O)cn3)n2)cc2c1nc(C)n2C(C)C` [compound 77] are 10 to 100 nM, < 10 nM, 100 to 500 nM, < 100 nM and 100 to 1000 nM.
Consider `COc1nc(-c2nc(Nc3ccc(N4CCOCC4=O)cn3)ncc2F)cc2c1ncn2C(C)C` [compound 78], for which the IC50 against CDK6/CyclinD3 (CDK6/CyclinD3) is 10 to 100 nM; against CDK4/CyclinD1 (CDK4/CyclinD1) it was < 10 nM; with T47D breast cancer cells it was < 100 nM; in assay [1], < 100 nM; at CDK2/CyclinE1 (CDK2/CyclinE1), 100 to 1000 nM.
